Data: paper PMC12040169 (PLOS Biology, 2025)

test: in vitro; details: human, hela cells, % viability

| Structure (SMILES) | viability at 28.5 h, 10 µM |
| --- | --- |
| O/N=C1/c2ccccc2/C(=N/O)C1c1ccccc1 [CBK261122] | 75.2% |
| O=C(CN1CCC2(CC1)CN(CCO)c1ccccc12)Nc1ccc(F)c(Cl)c1 [CBK126761] | 94.6% |
| O=C(CN1CCCC(c2cccc(Cc3ccc(F)cc3)n2)C1)Nc1nccs1 (stereo not shown) [CBK286503] | 93.1% |
| CS(=O)(=O)c1sc(C(=O)NC(=S)Nc2cccc(C(F)(F)F)c2)c2c1C=CCC2 [CBK005654] | 96.9% |
| CCNC(=O)N1CCC(NS(=O)(=O)c2cnc3ccccc3c2)C1 (stereo not shown) [CBK304419] | 85.3% |
| COc1ccc(OCc2nn(-c3nc4ccccc4s3)c(N)c2-c2ccccc2)cc1 [CBK266539] | 98.5% |
| COc1ccc2c(c1OC)C(=O)N(c1ncc(C)s1)C2 [CBK109943] | 99% |
| NC(=O)c1c(NC(=O)COc2ccccc2[N+](=O)[O-])sc2c1CCC2 [CBK262819] | 105% |
| O=C(NCc1cccc(C(F)(F)F)c1)c1cnc(-c2ccccc2)c(-c2ccco2)c1 [CBK036667] | 103% |
| O=C(O)C1CCN(Cc2ccc(Cl)cc2)CC1 [CBK286895] | 89.3% |
| CC(C(=O)NCCC1=CCCCC1)N1CCOC(Cn2cccn2)C1 (stereo not shown) [CBK305319] | 101% |
| Cc1cc(-c2ccc(=O)n(CCNC(=O)C3CCC3)n2)c(C)o1 [CBK284520] | 110% |
| Cc1cc(C)c2c(N)c(-c3ccncc3)sc2n1 [CBK288189] | 88.7% |
| Cc1noc(C)c1S(=O)(=O)Nc1ccnn1C [CBK062073] | 90.1% |
| COc1ccc(C(=O)NC(c2ccco2)c2cc(Cl)c3cccnc3c2O)cc1 (stereo not shown) [CBK263964] | 91.9% |
| O=C(O)CSc1nnc(SCc2cccc3ccccc23)s1 [CBK266215] | 81.4% |
| O=C(Nc1ccccc1-c1ccccc1)c1cc(-c2ccncc2)nc2ccc(Cl)cc12 [CBK267759] | 95% |
| CCCC/C=C/c1cnc(N)c(Nc2ccc(OC)cc2)n1 [CBK063890] | 93.9% |
| CCC(=O)N1CCc2cc(C(O)CN3CCCC3)ccc21 (stereo not shown) [CBK283110] | 97.7% |
| CCOC(=O)CN1CC(O)CC1c1cccc(C(F)(F)F)c1 (stereo not shown) [CBK304169] | 97.9% |
| CCC1CCCCN1C(=O)CCc1c(C)nc(-c2ccccc2)[nH]c1=O (stereo not shown) [CBK305608] | 87.5% |
| COc1ccccc1-c1nnc(NC(=O)COc2ccccc2)o1 [CBK287590] | 106% |

| Structure (SMILES) | viability at 28.5 h, 10 µM |
| --- | --- |
| O=C(N1CCC(c2ccncc2)CC1)C1(c2ccccc2)CC1 [CBK285480] | 102% |
| Cn1nc2c(cc1=O)CN(C(=O)c1cnc(C(C)(C)C)nc1)CC2 [CBK304293] | 96.5% |
| Cc1cc2ncc3c(n2n1)CC1CCC3N1C(=O)c1ccco1 (stereo not shown) [CBK284379] | 78.1% |
| COc1cc(/C=N/c2ccc3oc(-c4cccc(I)c4)nc3c2)ccc1OC(=O)c1ccc(Cl)cc1Cl [CBK261239] | 95.3% |
| Cn1cc(C(C(=O)O)N2CCN(c3ccccc3)CC2)c2cc(C(=O)O)ccc21 (stereo not shown) [CBK286627] | 115% |
| O=[N+]([O-])c1ccc(N2CCNCC2)cc1NCCO [CBK262851] | 75.1% |
| CC(=O)Nc1cccc(-c2cncc(NCc3ccco3)n2)c1 [CBK065290] | 100% |
| CC(C)(C)c1cc(NC(=O)Cn2nc(C(=O)O)c3ccccc3c2=O)n(-c2ccccc2)n1 [CBK297557] | 85.1% |
| CCCC(=O)c1ccc(S(=O)(=O)N2CCCN(Cc3c[nH]nc3-c3ccccc3)CC2)cc1 [CBK062916] | 83.9% |
| Cc1nccc(C(=O)N2CCC3(C/C=C/C[C@H]4COCC[C@H]4NC(=O)CNC3=O)CC2)n1 [CBK292072] | 103% |
| CN1CCN(C(=O)CCCN2C(=O)c3cccc4cccc(c34)C2=O)CC1 [CBK262383] | 96.9% |
| COc1ccc(S(=O)(=O)N(c2ccccc2)C2CCNCC2)cc1OC [CBK165076T] | 73.9% |
| Cc1nn(CC(=O)NCc2ccc(C(=O)O)cc2)c(C)c1[N+](=O)[O-] [CBK268967] | 118% |
| O=C(NCCn1c(C(F)(F)F)cc(=O)c2cccc(F)c21)C1CC1 [CBK284807] | 85.5% |
| CCn1cc(CN(CCO)C(=O)c2cccc(C#N)c2C)cn1 [CBK304196] | 109% |
| COc1ccc(Br)cc1C(=O)Nc1cc(-c2nc3ccccc3[nH]2)ccc1Cl [CBK264112] | 93.6% |
| S=C(NCc1ccc(Cl)cc1)Nc1ccncc1 [CBK016651] | 79.5% |
| COc1cc(-c2cn3ccnc3c(N[C@@H]3CCN(Cc4ccccc4)C3)n2)cc(OC)c1OC [CBK037385] | 113% |
| COc1ccc(CNc2cc(/C=C/c3ccccc3)nc3ccnn23)cc1 [CBK037075] | 103% |
| CCOc1cc(NC2CCN(C(=O)C(C)(C)C3CCCC3)CC2)ncn1 [CBK304430] | 91.2% |
| O=[N+]([O-])c1ccccc1CS(=O)(=O)Nc1ccc(-c2nnn[nH]2)cc1 [CBK155430] | 94.5% |
| CCCc1[nH]nc(O)c1CCc1ccc(OC)cc1OC [CBK081123] | 95.5% |

| Structure (SMILES) | viability at 28.5 h, 10 µM |
| --- | --- |
| OCCN1CCN(C(c2cccs2)c2ccc3cccnc3c2O)CC1 (stereo not shown) [CBK296964] | 76.7% |
| CCC(C(=O)O)N1C(=O)NC2C1N(C)C(=O)N2C (stereo not shown) [CBK287039] | 79.9% |
| O=C(c1ccccc1F)N1CCN(C(=O)[C@@H]2C[C@@H]3C=C[C@H]2C3)CC1 [CBK282011] | 89.1% |
| COc1ccc(C(=O)Nc2cc(C)nn2-c2nc3ccccc3s2)cc1 [CBK287841] | 89.8% |
| CN(C)S(=O)(=O)N(CC(=O)NCC1CCCO1)c1ccccc1 (stereo not shown) [CBK268192] | 103% |
| Cc1noc(C)c1C(=O)N1CCC2(CC1)CC(=O)c1cc(Br)ccc1O2 [CBK156508] | 90% |
| O=C(Nc1ccc(O)cc1C(=O)O)c1ccc2c(c1)C(=O)N(Cc1ccccc1)C2=O [CBK266540] | 88.7% |
| COc1ccc(S(=O)(=O)NC(C)C(=O)NCc2ccccn2)cc1Cl (stereo not shown) [CBK269275] | 101% |
| Cc1cc(C)n(CCn2cc(-c3ncc[nH]3)nn2)c(=O)n1 [CBK307554] | 83.1% |
| COCC(=O)N[C@H]1CCN2C(=O)c3cc(-c4cccc(C)c4C)ccc3NC(=O)[C@@H]2C1 [CBK289562] | 90.7% |
| Cc1cc(C)c(C(=O)N2CCN(CCNC(=O)C3CCCC3)CC2)[nH]1 [CBK305315] | 89.5% |
| Cc1ccc(S(=O)(=O)NCCSCc2cccc(Cl)c2)cc1[N+](=O)[O-] [CBK264116] | 93.4% |
| N#Cc1ccsc1NC(=O)CN1CCC(CNc2ccccn2)C1 (stereo not shown) [CBK306117] | 105% |
| CCOC(=O)C1(Cc2cc(-c3cccc(F)c3)no2)CCCNC1 (stereo not shown) [CBK284578] | 87.3% |
| CN(C)c1ccccc1C1(O)CN2CCC1CC2 (stereo not shown) [CBK022620] | 86.8% |
| Cc1nc(N)nc(NCCC2CCCN(C)C2)c1Cl (stereo not shown) [CBK307445] | 88.6% |
| O=C(O)C1Cc2nc[nH]c2C(c2ccc(F)cc2)N1 (stereo not shown) [CBK286970] | 86.1% |
| OC1(Cn2ccc3ncccc32)CCN(CC2CC=CCC2)CC1 (stereo not shown) [CBK284782] | 93.6% |
| COc1ccc2cc(COC(=O)c3cnc(C)cn3)c(Cl)nc2c1 [CBK295288] | 106% |
| O=C1c2cccc3cccc(c23)C(=O)N1CCN1CCN(CC(O)COc2ccc(Cl)cc2Cl)CC1 (stereo not shown) [CBK264881] | 94.5% |
| CN(Cc1nc2ccccc2c(=O)[nH]1)Cc1cc2c(cc1Br)OCCO2 [CBK296715] | 108% |
| CC(C)n1cccc1CN[C@@H]1CCC(=O)N[C@H]1c1cccc(F)c1 [CBK282908] | 91.1% |

| Structure (SMILES) | viability at 28.5 h, 10 µM |
| --- | --- |
| N#Cc1ccc(C(=O)N2C[C@@H]3C[C@H](C2)c2c(-c4cccc(C#N)c4)ccc(=O)n2C3)cc1 [CBK289196] | 104% |
| c1ccc(-c2nnc(COc3ccc(-c4cnc5ccccc5n4)cc3)o2)cc1 [CBK269707] | 90.4% |
| CN(C)C(=O)c1cc2cc(NC(=O)CC3COCCN3)ccc2s1 (stereo not shown) [CBK306710] | 105% |
| O=C(O)CCCn1cc(NC(=O)Cc2ccccc2F)cn1 [CBK270119] | 96.3% |
| CCCC/C=C/c1ccc(Nc2ccc(N3CCOCC3)cc2)nc1 [CBK036886] | 88.7% |
| Cc1ccc(C(=O)NCCCN2CCC3(CC2)OCCc2c3[nH]c3ccccc23)cc1 [CBK113485] | 85.5% |
| CC(=O)N1Cc2cc(C)ccc2OC2(CCCN(CC3CC3)C2)C1 (stereo not shown) [CBK285104] | 88.7% |
| COc1cc(C(=O)Nc2ncccc2OCCCC#N)ccc1C [CBK304568] | 85.7% |
| CC(NC(=O)N1CCSCC1)c1cccc(Br)c1 (stereo not shown) [CBK306475] | 86.2% |
| Cc1nnc(CCn2cnc3cccnc3c2=O)s1 [CBK307125] | 96.7% |
| CC1(C)CC(NC(=O)C23CCC(C)(c4nc5ccccc5nc42)C3(C)C)CC(C)(C)N1 (stereo not shown) [CBK266559] | 99.3% |
| C=C(C)CNC(=O)c1cc(Br)cnc1N(C)S(C)(=O)=O [CBK076498] | 94.6% |
| O=C(Nc1ccccc1)C(N1CCCCC1)N1CCCCC1 [CBK263425] | 105% |
| O=C(NCCC1=CCCCC1)Nc1ccc(SC(F)(F)F)cc1 [CBK043725] | 85.7% |
| CCCN(CC1CC1)C(=O)CC1SC(NCC2CCCCC2)=NC1=O (stereo not shown) [CBK067014] | 104% |
| O=C(Cc1ccsc1)Nc1snnc1-c1ccc(Cl)cc1 [CBK153243] | 94.5% |
| O=C1C[C@@H]2CCN(C(=O)NC3CCCCC3)C[C@@H]2CCN1CCN1CCNC1=O [CBK288796] | 96.4% |
| CN1CC(C(=O)N2CCCC(c3cc4cccnc4[nH]3)C2)CC1=O (stereo not shown) [CBK284958] | 92.5% |
| CN1CCCN(Cc2cccc3ccccc23)CC1 [CBK261531] | 96.4% |
| CSCCCNC(=O)N(Cc1cccnc1)Cc1ccc2c(c1)OCO2 [CBK159426] | 92.7% |
| CC(C)N(C(=O)CN1C(=O)N2CCN=C2c2ccccc21)C(C)C [CBK284005] | 87% |

same assay, conditions: human, hela cells, % viability, bulk resorufin, single well

| Structure (SMILES) | viability at 28.5 h, 10 µM |
| --- | --- |
| COc1ccc(N2C(=O)/C(=C/c3cc(C)n(-c4cccc(C(=O)O)c4C)c3C)C(=O)NC2=S)cc1 [CBK264315] | 96.6% |
